Results reported in patent US20230250083A1, “CRYSTALS” (NIPPON SHINYAKU CO., LTD., priority 2017, published 2023).

Key:
[1] = Crystallization experiment, operation procedure 1 (suspension stirred 2 days, cooled and warmed between 4 to 40° C.); format: physicochemical; design: key: —: The symbol “-” in Table 1 to Table 3 means that no precipitate was obtained
Procedure: (§1) Each of various solvents was added to the Form-I crystal of the present invention (several mg), crystals of the compound A were precipitated according to the following operation procedures, and the crystal form of the precipitated crystals was confirmed. The results of the operation procedures 1 to 3 are shown in Table 1 and Table 2, and the results of the operation procedure 4 are shown in Table 3. The symbol “-” in Table 1 to Table 3 means that no precipitate was obtained.
Each of various solvents (50 μL) was added to the Form-I crystal of the present invention to make a suspension thereof, and the suspension was stirred for 2 days while repeatedly being cooled and warmed between 4 to 40° C.

[2] = Crystallization experiment, operation procedure 2 (dissolved at 40° C., cooled to 4° C., stirred 3 days); format: physicochemical; design: key: —: The symbol “-” in Table 1 to Table 3 means that no precipitate was obtained
Procedure: as §1
Each of various solvents (50 μL) was added to the Form-I crystal of the present invention to dissolve the Form-I crystal of the present invention at 40° C. […] The solution was cooled to 4° C. and stirred for 3 days.

[3] = Crystallization experiment, operation procedure 3 (dissolved at 40° C., solvent gradually distilled off at room temperature); format: physicochemical; design: key: —: The symbol “-” in Table 1 to Table 3 means that no precipitate was obtained
Procedure: as §1
Each of various solvents (50 μL) was added to the Form-I crystal of the present invention to dissolve the Form-I crystal of the present invention at 40° C. […] The solvent was gradually distilled off at room temperature.

[4] = Crystallization experiment, operation procedure 4 (saturated solution, poor solvent added); format: physicochemical; design: key: —: The symbol “-” in Table 1 to Table 3 means that no precipitate was obtained
Procedure: Each of various solvents was added to the Form-I crystal of the present invention (several mg), crystals of the compound A were precipitated according to the following operation procedures, and the crystal form of the precipitated crystals was confirmed. The results of the operation procedures 1 to 3 are shown in Table 1 and Table 2, and the results of the operation procedure 4 are shown in Table 3. The symbol “-” in Table 1 to Table 3 means that no precipitate was obtained. Each of various dissolving solvents (minimum volume) was added to the Form-I crystal of the present invention to prepare a saturated solution. Various poor solvents were added thereto.

[5] = biological target: JAK2 tyrosine kinase (Homo sapiens, UniProt O60674); conditions: see PATENT DOCUMENT 1; cited from earlier work
[6] = solvent 1,4-dioxane:water 80:20
[7] = solvent acetonitrile:dimethyl sulfoxide 80:20
[8] = solvent acetonitrile:water 80:20
[9] = solvent acetonitrile:water 95:5
[10] = solvent ethanol:dimethyl sulfoxide 80:20
[11] = solvent tetrahydrofuran:water 20:80
[12] = solvent tetrahydrofuran:water 95:5

Sequence of JAK2 tyrosine kinase (O60674 whole entry): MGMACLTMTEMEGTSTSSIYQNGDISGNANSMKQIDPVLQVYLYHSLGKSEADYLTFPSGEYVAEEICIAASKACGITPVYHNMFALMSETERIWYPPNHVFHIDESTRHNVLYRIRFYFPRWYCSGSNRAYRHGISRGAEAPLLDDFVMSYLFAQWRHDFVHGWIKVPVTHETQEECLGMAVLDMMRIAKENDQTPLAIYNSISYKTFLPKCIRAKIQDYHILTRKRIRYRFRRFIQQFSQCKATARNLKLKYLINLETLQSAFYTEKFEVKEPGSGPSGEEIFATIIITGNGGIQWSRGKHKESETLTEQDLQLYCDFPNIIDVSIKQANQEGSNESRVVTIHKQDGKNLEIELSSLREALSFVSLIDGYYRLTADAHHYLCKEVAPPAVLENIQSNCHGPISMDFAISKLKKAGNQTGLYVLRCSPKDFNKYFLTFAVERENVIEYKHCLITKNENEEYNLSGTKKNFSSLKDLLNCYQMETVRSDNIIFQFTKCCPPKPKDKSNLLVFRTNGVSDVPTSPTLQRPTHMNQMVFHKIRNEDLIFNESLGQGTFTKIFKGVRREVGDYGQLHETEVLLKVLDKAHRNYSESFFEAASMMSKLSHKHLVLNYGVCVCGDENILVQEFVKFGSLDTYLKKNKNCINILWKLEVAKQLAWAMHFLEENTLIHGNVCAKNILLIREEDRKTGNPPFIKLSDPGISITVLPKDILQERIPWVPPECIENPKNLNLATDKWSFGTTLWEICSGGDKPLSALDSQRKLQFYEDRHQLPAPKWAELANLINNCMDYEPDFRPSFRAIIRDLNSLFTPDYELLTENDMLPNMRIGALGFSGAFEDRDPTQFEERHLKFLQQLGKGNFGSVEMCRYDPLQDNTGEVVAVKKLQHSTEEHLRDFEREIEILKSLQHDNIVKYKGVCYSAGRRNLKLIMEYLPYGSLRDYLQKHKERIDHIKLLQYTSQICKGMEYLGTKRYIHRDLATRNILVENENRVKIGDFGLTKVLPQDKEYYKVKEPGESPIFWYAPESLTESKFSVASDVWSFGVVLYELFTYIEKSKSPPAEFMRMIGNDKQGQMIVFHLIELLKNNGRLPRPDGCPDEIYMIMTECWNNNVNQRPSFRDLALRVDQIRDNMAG

Structure (SMILES): C[C@H](Nc1cc(-c2cnn(C)c2)cc(Nc2cnccn2)n1)c1ccc(F)cc1.O=C(O)/C=C\C(=O)O [compound A, (S)-N^2-[1-(4-fluorophenyl)ethyl]-4-(1-methyl-1H-pyrazol-4-yl)-N^6-(pyrazin-2-yl)pyridine-2,6-diamine maleate]
- crystal form of the precipitated crystals ([1]; solvent 1,4-dioxane): Form-I
- crystal form of the precipitated crystals [1, 6]: Form-I
- crystal form of the precipitated crystals ([1]; solvent 1-butanol): Form-I
- crystal form of the precipitated crystals ([1]; solvent 1-methoxy-2 -propanol): Form-I
- crystal form of the precipitated crystals ([1]; solvent 1-propanol): Form-I
- crystal form of the precipitated crystals ([1]; solvent 2-methoxyethanol): Form-I
- crystal form of the precipitated crystals ([1]; solvent 2-methoxyethyl ether): Form-I
- crystal form of the precipitated crystals ([1]; solvent 2-propanol): Form-I
- crystal form of the precipitated crystals ([1]; solvent 2-propanol:water 80:20): Form-I
- crystal form of the precipitated crystals ([1]; solvent 2-propanol:water 95:5): Form-I
- crystal form of the precipitated crystals ([1]; solvent N,N-dimethylformamide): —
- crystal form of the precipitated crystals ([1]; solvent N-methylpyrrolidone): —
- crystal form of the precipitated crystals ([1]; solvent acetone): Form-I
- crystal form of the precipitated crystals ([1]; solvent acetone:water 20:80): Form-I
- crystal form of the precipitated crystals ([1]; solvent acetone:water 80:20): Form-I
- crystal form of the precipitated crystals ([1]; solvent acetone:water 95:5): Form-I
- crystal form of the precipitated crystals ([1]; solvent acetonitrile): Form-I
- crystal form of the precipitated crystals [1, 7]: Form-I
- crystal form of the precipitated crystals [1, 8]: Form-I
- crystal form of the precipitated crystals [1, 9]: Form-I
- crystal form of the precipitated crystals ([1]; solvent chlorobenzene): Form-I
- crystal form of the precipitated crystals ([1]; solvent chloroform): Form-I
- crystal form of the precipitated crystals ([1]; solvent cyclohexane): Form-I
- crystal form of the precipitated crystals ([1]; solvent cyclohexanone): Form-I
- crystal form of the precipitated crystals ([1]; solvent dichloromethane): Form-I
- crystal form of the precipitated crystals ([1]; solvent dimethyl carbonate): Form-I
- crystal form of the precipitated crystals ([1]; solvent dimethyl sulfoxide): —
- crystal form of the precipitated crystals ([1]; solvent ethanol): Form-I
- crystal form of the precipitated crystals [1, 10]: Form-I
- crystal form of the precipitated crystals ([1]; solvent ethanol:water 20:80): Form-I
- crystal form of the precipitated crystals ([1]; solvent ethyl acetate): Form-I
- crystal form of the precipitated crystals ([1]; solvent heptane): Form-I
- crystal form of the precipitated crystals ([1]; solvent isopropyl acetate): Form-I
- crystal form of the precipitated crystals ([1]; solvent isopropyl ether): Form-I
- crystal form of the precipitated crystals ([1]; solvent methanol): Form-I
- crystal form of the precipitated crystals ([1]; solvent methanol:water 80:20): Form-I
- crystal form of the precipitated crystals ([1]; solvent methanol:water 95:5): Form-I
- crystal form of the precipitated crystals ([1]; solvent methyl acetate): Form-I
- crystal form of the precipitated crystals ([1]; solvent methyl ethyl ketone): Form-I
- crystal form of the precipitated crystals ([1]; solvent methyl isobutyl ketone): Form-I
- crystal form of the precipitated crystals ([1]; solvent nitromethane): Form-I
- crystal form of the precipitated crystals ([1]; solvent t-butyl methyl ether): Form-I
- crystal form of the precipitated crystals ([1]; solvent tetrahydrofuran): Form-I
- crystal form of the precipitated crystals [1, 11]: Form-I
- crystal form of the precipitated crystals [1, 12]: Form-I
- crystal form of the precipitated crystals ([1]; solvent toluene): Form-I
- crystal form of the precipitated crystals ([1]; solvent trifluoroethanol): —
- crystal form of the precipitated crystals ([1]; solvent water): Form-I
- crystal form of the precipitated crystals ([2]; solvent 1,4-dioxane): solvate
- crystal form of the precipitated crystals [2, 6]: —
- crystal form of the precipitated crystals ([2]; solvent 1-butanol): —
- crystal form of the precipitated crystals ([2]; solvent 1-methoxy-2 -propanol): —
- crystal form of the precipitated crystals ([2]; solvent 1-propanol): Form-I
- crystal form of the precipitated crystals ([2]; solvent 2-methoxyethanol): —
- crystal form of the precipitated crystals ([2]; solvent 2-methoxyethyl ether): —
- crystal form of the precipitated crystals ([2]; solvent 2-propanol): —
- crystal form of the precipitated crystals ([2]; solvent 2-propanol:water 80:20): —
- crystal form of the precipitated crystals ([2]; solvent 2-propanol:water 95:5): —
- crystal form of the precipitated crystals ([2]; solvent N,N-dimethylformamide): —
- crystal form of the precipitated crystals ([2]; solvent N-methylpyrrolidone): —
- crystal form of the precipitated crystals ([2]; solvent acetone): Form-I
- crystal form of the precipitated crystals ([2]; solvent acetone:water 20:80): —
- crystal form of the precipitated crystals ([2]; solvent acetone:water 80:20): —
- crystal form of the precipitated crystals ([2]; solvent acetone:water 95:5): —
- crystal form of the precipitated crystals ([2]; solvent acetonitrile): —
- crystal form of the precipitated crystals [2, 7]: —
- crystal form of the precipitated crystals [2, 8]: —
- crystal form of the precipitated crystals [2, 9]: —
- crystal form of the precipitated crystals ([2]; solvent chlorobenzene): —
- crystal form of the precipitated crystals ([2]; solvent chloroform): —
- crystal form of the precipitated crystals ([2]; solvent cyclohexane): —
- crystal form of the precipitated crystals ([2]; solvent cyclohexanone): —
- crystal form of the precipitated crystals ([2]; solvent dichloromethane): —
- crystal form of the precipitated crystals ([2]; solvent dimethyl carbonate): —
- crystal form of the precipitated crystals ([2]; solvent dimethyl sulfoxide): —
- crystal form of the precipitated crystals ([2]; solvent ethanol): Form-I
- crystal form of the precipitated crystals [2, 10]: Form-I
- crystal form of the precipitated crystals ([2]; solvent ethanol:water 20:80): —
- crystal form of the precipitated crystals ([2]; solvent ethyl acetate): —
- crystal form of the precipitated crystals ([2]; solvent heptane): —
- crystal form of the precipitated crystals ([2]; solvent isopropyl acetate): —
- crystal form of the precipitated crystals ([2]; solvent isopropyl ether): —
- crystal form of the precipitated crystals ([2]; solvent methanol): Form-I
- crystal form of the precipitated crystals ([2]; solvent methanol:water 80:20): Form-I
- crystal form of the precipitated crystals ([2]; solvent methanol:water 95:5): —
- crystal form of the precipitated crystals ([2]; solvent methyl acetate): —
- crystal form of the precipitated crystals ([2]; solvent methyl ethyl ketone): —
- crystal form of the precipitated crystals ([2]; solvent methyl isobutyl ketone): —
- crystal form of the precipitated crystals ([2]; solvent nitromethane): —
- crystal form of the precipitated crystals ([2]; solvent t-butyl methyl ether): —
- crystal form of the precipitated crystals ([2]; solvent tetrahydrofuran): —
- crystal form of the precipitated crystals [2, 11]: —
- crystal form of the precipitated crystals [2, 12]: —
- crystal form of the precipitated crystals ([2]; solvent toluene): —
- crystal form of the precipitated crystals ([2]; solvent trifluoroethanol): —
- crystal form of the precipitated crystals ([2]; solvent water): —
- crystal form of the precipitated crystals ([3]; solvent acetone): —
- crystal form of the precipitated crystals ([3]; solvent acetonitrile): —
- crystal form of the precipitated crystals ([3]; solvent dimethyl sulfoxide): Form-I
- crystal form of the precipitated crystals ([3]; solvent nitromethane): —
- Crystal form ([4]; dissolving solvent 2-methoxyethanol, poor solvent cyclohexane): Form-I
- Crystal form ([4]; dissolving solvent 2-methoxyethanol, poor solvent isopropyl acetate): Form-I
- Crystal form ([4]; dissolving solvent 2-methoxyethanol, poor solvent t-butyl methyl ether): Form-I
- Crystal form ([4]; dissolving solvent 2-methoxyethanol, poor solvent water): —
- Crystal form ([4]; dissolving solvent N,N-dimethylformamide, poor solvent 2-propanol): Form-I
- Crystal form ([4]; dissolving solvent N,N-dimethylformamide, poor solvent diethyl ether): Form-I
- Crystal form ([4]; dissolving solvent N,N-dimethylformamide, poor solvent isopropyl acetate): Form-I
- Crystal form ([4]; dissolving solvent N,N-dimethylformamide, poor solvent t-butyl methyl ether): Form-I
- Crystal form ([4]; dissolving solvent N,N-dimethylformamide, poor solvent water): Form-I
- Crystal form ([4]; dissolving solvent N-methylpyrrolidone, poor solvent 2-propanol): Form-I
- Crystal form ([4]; dissolving solvent N-methylpyrrolidone, poor solvent ethyl acetate): Form-I
- Crystal form ([4]; dissolving solvent N-methylpyrrolidone, poor solvent toluene): Form-I
- Crystal form ([4]; dissolving solvent N-methylpyrrolidone, poor solvent water): Form-I
- Crystal form ([4]; dissolving solvent acetone:water 80:20, poor solvent 2-propanol): —
- Crystal form ([4]; dissolving solvent acetone:water 80:20, poor solvent water): Form-II
- Crystal form ([4]; dissolving solvent dimethyl sulfoxide, poor solvent 2-propanol): Form-I
- Crystal form ([4]; dissolving solvent dimethyl sulfoxide, poor solvent diisopropyl ether): —
- Crystal form ([4]; dissolving solvent dimethyl sulfoxide, poor solvent ethyl acetate): Form-I
- Crystal form ([4]; dissolving solvent dimethyl sulfoxide, poor solvent t-butyl methyl ether): Form-I
- Crystal form ([4]; dissolving solvent dimethyl sulfoxide, poor solvent water): —
- Crystal form ([4]; dissolving solvent tetrahydrofuran:water 80:20, poor solvent water): Form-I
- Crystal form ([4]; dissolving solvent trifluoroethanol, poor solvent cyclohexane): —
- Crystal form ([4]; dissolving solvent trifluoroethanol, poor solvent diisopropyl ether): Form-I
- Crystal form ([4]; dissolving solvent trifluoroethanol, poor solvent water): —
- JAK2 tyrosine kinase inhibitory action [5]: excellent JAK2 tyrosine kinase inhibitory action
